Laboratory results: PubChem BioAssay AID248 (DTP/NCI, 2004)
“And” between values parts separate entries of the source, which are not always exact repeats. Equal entries are not always repeated. Toxic doses and inconclusive results are not listed. No stated cut-off is given here; in the data, active means T/C of 150% or more; inactive means T/C below 125%.

Test system: L1210 leukemia ip in BDF1 mice, survival T/C
Assay: NCI In Vivo Anticancer Drug Screen. Data for tumor model L1210 Leukemia (intraperitoneal) in B6D2F1 (BDF1) mice
Settings: endpoint: mean survival time, higher = longer survival
Method in brief: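 Transplantable tumor model; survival measured in treated vs vehicle control mice. Value = treated/control.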

[1] = dose: 100.0 mg/kg/injection, schedule: Q01DX001 (ip), vehicle: saline
[2] = dose: 200.0 mg/kg/injection, schedule: Q01DX001 (ip), vehicle: saline
[3] = dose: 400.0 mg/kg/injection, schedule: Q01DX001 (ip), vehicle: saline
[4] = dose: 100.0 mg/kg/injection, schedule: Q01DX009 (ip), vehicle: Klucel (hydroxypropylcellulose) (HPC)
[5] = dose: 200.0 mg/kg/injection, schedule: Q01DX009 (ip), vehicle: Klucel (hydroxypropylcellulose) (HPC)
[6] = dose: 400.0 mg/kg/injection, schedule: Q01DX009 (ip), vehicle: Klucel (hydroxypropylcellulose) (HPC)
[7] = dose: 100.0 mg/kg/injection, schedule: Q04DX003 (ip), vehicle: saline with Tween-80
[8] = dose: 200.0 mg/kg/injection, schedule: Q04DX003 (ip), vehicle: saline with Tween-80
[9] = dose: 100.0 mg/kg/injection, schedule: Q01DX009 (ip), vehicle: saline with Tween-80
[10] = dose: 100.0 mg/kg/injection, schedule: Q04DX002 (ip), vehicle: Klucel (hydroxypropylcellulose) (HPC)
[11] = dose: 200.0 mg/kg/injection, schedule: Q01DX009 (ip), vehicle: saline with Tween-80
[12] = dose: 200.0 mg/kg/injection, schedule: Q04DX002 (ip), vehicle: Klucel (hydroxypropylcellulose) (HPC)
[13] = dose: 400.0 mg/kg/injection, schedule: Q04DX002 (ip), vehicle: Klucel (hydroxypropylcellulose) (HPC)
[14] = dose: 400.0 mg/kg/injection, schedule: Q01DX009 (ip), vehicle: saline with Tween-80
[15] = dose: 50.0 mg/kg/injection, schedule: Q01DX009 (ip), vehicle: saline with Tween-80
[16] = dose: 100.0 mg/kg/injection, schedule: Q04DX003 (ip), vehicle: Klucel (hydroxypropylcellulose) (HPC)
[17] = dose: 200.0 mg/kg/injection, schedule: Q04DX003 (ip), vehicle: Klucel (hydroxypropylcellulose) (HPC)
[18] = dose: 400.0 mg/kg/injection, schedule: Q04DX003 (ip), vehicle: Klucel (hydroxypropylcellulose) (HPC)
[19] = dose: 400.0 mg/kg/injection, schedule: Q04DX002 (ip), vehicle: saline with Tween-80
[20] = dose: 25.0 mg/kg/injection, schedule: Q01DX009 (ip), vehicle: saline with Tween-80
[21] = dose: 25.0 mg/kg/injection, schedule: Q01DX009 (ip), vehicle: Klucel (hydroxypropylcellulose) (HPC)
[22] = dose: 50.0 mg/kg/injection, schedule: Q01DX009 (ip), vehicle: Klucel (hydroxypropylcellulose) (HPC)
[23] = dose: 100.0 mg/kg/injection, schedule: Q01DX001 (ip), vehicle: carboxymethylcellulose (CMC)
[24] = dose: 200.0 mg/kg/injection, schedule: Q01DX001 (ip), vehicle: carboxymethylcellulose (CMC)
[25] = dose: 400.0 mg/kg/injection, schedule: Q01DX001 (ip), vehicle: carboxymethylcellulose (CMC)

Measured: T/C

O=C1c2ccccc2-c2c(O)cccc21
inactive: dose: 100.0 mg/kg/injection, schedule: Q01DX001 (ip), vehicle: Klucel (hydroxypropylcellulose) (HPC) 94 % of control | dose: 200.0 mg/kg/injection, schedule: Q01DX001 (ip), vehicle: Klucel (hydroxypropylcellulose) (HPC) 100 % of control | dose: 400.0 mg/kg/injection, schedule: Q01DX001 (ip), vehicle: Klucel (hydroxypropylcellulose) (HPC) 96 % of control

ClC(Cl)=C(c1ccc(Cl)cc1)c1ccc(Cl)cc1
inactive: [1] 101 % of control | dose: 100.0 mg/kg/injection, schedule: Q04DX002 (ip), vehicle: gum acacia 114 % of control | [2] 110 % of control | dose: 200.0 mg/kg/injection, schedule: Q04DX002 (ip), vehicle: gum acacia 91 % of control | [3] 98 % of control | dose: 400.0 mg/kg/injection, schedule: Q04DX002 (ip), vehicle: gum acacia 100 % of control

CC(=O)c1cccc(NC(=O)c2cccc(F)c2)c1
inactive: [4] 95 % of control | [5] 97 % of control | [6] 95 % of control

COc1ccc(C(C(C(C)=O)C(C)=O)C(C(C)=O)C(C)=O)cc1
inactive: [7] 100 % of control | [8] 93 % of control

CC(C)=CCC/C(C)=C/COC(=O)C(CC=C(C)C)CCN1CCN(CC=C(C)C)CC1 (stereo unspecified)
inactive: [9] 98 % of control | [10] 88 % of control | [11] 92 % of control | [12] 92 % of control | [13] 98 % of control

O=C1NC(=O)C(c2ccccc2)(C2CCC2)N1 (stereo unspecified)
inactive: [9] 93 % of control | [11] 103 % of control | [14] 95 % of control

CCOC(=O)CCCN(c1[nH]c(C)c(C)c1C#N)S(=O)(=O)c1ccc(C)cc1
inactive: [15] 93 % of control | dose: 50.0 mg/kg/injection, schedule: Q04DX003 (ip), vehicle: saline with Tween-80 93 % of control | [9] 96 % of control | [7] 90 % of control | [11] 90 % of control | [8] 101 % of control | [14] 100 % of control | dose: 400.0 mg/kg/injection, schedule: Q04DX003 (ip), vehicle: saline with Tween-80 95 % of control

c1ccc(CCCCc2ccccn2)cc1
inactive: [4] 105 % of control | [16] 101 % of control | [5] 105 % of control | [17] 105 % of control | [6] 97 % of control | [18] 94 % of control

CN(Cc1ccccc1)C(=O)c1ccc(C(=O)N(C)Cc2ccccc2)cc1
inactive: [4] 97 % of control | [5] 108 % of control | [6] 102 % of control

CC1(C)OC2OCC(O)C2O1 (stereo unspecified)
inactive: dose: 50.0 mg/kg/injection, schedule: Q04DX002 (ip), vehicle: saline 100 % of control | dose: 100.0 mg/kg/injection, schedule: Q04DX002 (ip), vehicle: saline 104 % of control | dose: 200.0 mg/kg/injection, schedule: Q04DX002 (ip), vehicle: saline 110 % of control

CCCCS(=O)(=O)N1CCCC1
inactive: dose: 100.0 mg/kg/injection, schedule: Q04DX002 (ip), vehicle: saline with Tween-80 101 % of control | dose: 200.0 mg/kg/injection, schedule: Q04DX002 (ip), vehicle: saline with Tween-80 101 % of control | [19] 101 % of control

O=c1cc(Oc2ccccc2)[nH]c(=O)[nH]1
inactive: dose: 65.0 mg/kg/injection, schedule: Q01DX001 (ip), vehicle: Klucel (hydroxypropylcellulose) (HPC) 112 % of control | dose: 130.0 mg/kg/injection, schedule: Q01DX001 (ip), vehicle: Klucel (hydroxypropylcellulose) (HPC) 93 % of control | dose: 260.0 mg/kg/injection, schedule: Q01DX001 (ip), vehicle: Klucel (hydroxypropylcellulose) (HPC) 93 % of control

C(=Nc1ccc(-c2ccccc2)cc1)c1ccccc1
inactive: [20] 105 % of control | [15] 97 % of control | [9] 92 % of control

CCCCCCCCCCCC[Si](CCCCCCCCCCCC)(c1ccccc1)c1ccccc1
inactive: [9] 91 % of control | [11] 93 % of control | [14] 96 % of control

Cc1c(CCl)c(C)c(CCl)c(C)c1CCl
inactive: dose: 12.0 mg/kg/injection, schedule: Q04DX003 (ip), vehicle: Klucel (hydroxypropylcellulose) (HPC) 105 % of control | [21] 88 % of control | dose: 25.0 mg/kg/injection, schedule: Q04DX003 (ip), vehicle: Klucel (hydroxypropylcellulose) (HPC) 100 % of control | [22] 100 % of control | dose: 50.0 mg/kg/injection, schedule: Q04DX003 (ip), vehicle: Klucel (hydroxypropylcellulose) (HPC) 100 % of control

O=C(N/N=C/c1ccc2c(c1)OCO2)c1cccc2ccccc12
inactive: [1] 97 % of control | [2] 86 % of control | [3] 97 % of control

CC(C)=CC(=O)OC1C2C(C)C(=O)OC2C(O)C(C)C2C=CC(=O)C21C (stereo unspecified)
inactive: dose: 6.25 mg/kg/injection, schedule: Q01DX009 (ip), vehicle: saline with Tween-80 95 % of control | dose: 12.5 mg/kg/injection, schedule: Q01DX009 (ip), vehicle: saline with Tween-80 97 % of control | [21] 97 % of control | [20] 103 % of control | dose: 25.0 mg/kg/injection, schedule: Q01DX009 (ip), vehicle: saline 93 % of control | [22] 94 % of control | [15] 103 % of control | dose: 50.0 mg/kg/injection, schedule: Q01DX009 (ip), vehicle: saline 100 % of control

NC(=O)Oc1ccc(Cc2ccccc2)cc1
inactive: [4] 97 % of control | [16] 95 % of control | [5] 103 % of control | [17] 97 % of control | [6] 110 % of control | [18] 95 % of control

CCCCOC(=O)c1ccc(NC(=O)Nc2ccc(F)c([N+](=O)[O-])c2)cc1
inactive: [4] 98 % of control | [5] 95 % of control | [6] 101 % of control

CC(=O)Nc1ccc2c(c1)-c1ccc(F)cc1C2=O
inactive: [23] 96 % of control | [24] 103 % of control | [25] 89 % of control

CCC1([N+](=O)[O-])COP(=O)(OC(=O)c2ccccc2)OC1 (stereo unspecified)
inactive: [1] 100 % of control | [2] 108 % of control | [3] 97 % of control

CN1C(C(=O)c2ccccc2)C1C(=O)c1ccccc1 (stereo unspecified)
inactive: dose: 75.0 mg/kg/injection, schedule: Q04DX003 (ip), vehicle: carboxymethylcellulose (CMC) 112 % of control | dose: 150.0 mg/kg/injection, schedule: Q04DX003 (ip), vehicle: carboxymethylcellulose (CMC) 102 % of control | dose: 300.0 mg/kg/injection, schedule: Q04DX003 (ip), vehicle: carboxymethylcellulose (CMC) 102 % of control

C=CCc1cc(CN2CCOCC2)c(O)c(OC)c1
inactive: [4] 98 % of control | [10] 101 % of control and 108 % of control | [5] 97 % of control | [12] 89 % of control | [6] 103 % of control | [13] 107 % of control

COc1c(NC(=O)Nc2ccccc2Cl)cccc1[N+](=O)[O-]
inactive: [19] 90 % of control

COc1ccc(NC(=O)CSc2cc(Cl)ccc2Cl)cc1
inactive: [23] 102 % of control | [24] 96 % of control | [25] 90 % of control

O=[N+]([O-])c1ccc2c(c1)/C(=N\O)c1cc(Cl)ccc1-2
inactive: [23] 97 % of control | [24] 97 % of control | [25] 94 % of control

Cc1nnc(/N=C/c2ccccc2)n1/N=C/c1ccccc1
inactive: dose: 25.0 mg/kg/injection, schedule: Q04DX002 (ip), vehicle: Klucel (hydroxypropylcellulose) (HPC) 90 % of control | dose: 50.0 mg/kg/injection, schedule: Q04DX002 (ip), vehicle: Klucel (hydroxypropylcellulose) (HPC) 90 % of control | [10] 96 % of control

CCCCCCCCN(C)N=Nc1ccc(C(N)=O)cc1
inactive: dose: 118.0 mg/kg/injection, schedule: Q01DX009 (ip), vehicle: Klucel (hydroxypropylcellulose) (HPC) 122 % of control | dose: 175.0 mg/kg/injection, schedule: Q01DX009 (ip), vehicle: Klucel (hydroxypropylcellulose) (HPC) 115 % of control
